Measured values: patent US20060014790A1, “Methods of treatment of amyloidosis using spirocyclohexane aspartyl-protease inhibitors” (priority 2004, published 2006)
Where “and” joins values, the source holds several entries; their conditions need not be identical. Equal values may be shown once.

Assays:
[1] = target: catE / beta-secretase (BACE); test: CatE/BACE selectivity (ratio of IC50 values); type: biochemical; conditions: each value is an average of four experimental runs; multiple values = more than one experiment
Protocol: (§1) Selectivity was calculated as a ratio of inhibition (IC50) values in which the inhibition of beta-secretase was compared to the inhibition of other aspartyl proteases.
Selectivity is reported as the ratio of IC50(catE):IC50(BACE).
(§2) In the following examples, each value is an average of four experimental runs and multiple values for one compound indicate that more than one experiment was conducted.

[2] = target: catD / beta-secretase (BACE); test: CatD/BACE selectivity (ratio of IC50 values); type: biochemical; conditions: each value is an average of four experimental runs; multiple values = more than one experiment
Protocol: as §1, §2

Structure (SMILES): COC1CCC(NCC(O)C(Cc2cc(F)cc(F)c2)NC(C)=O)(c2cccc(C(C)(C)C)c2)CC1 (single isomer, unassigned) [196B-3 Diastereomer A, N-[3-[1-(3-tert-Butyl-phenyl)-4-methoxy-cyclohexylamino]-1-(3,5-difluoro-benzyl)-2-hydroxy-propyl]-acetamide]
- IC50 catE/IC50 BACE [1]: 1.8 and 1.5

Structure (SMILES): COC1CCC(NCC(O)C(Cc2cc(F)cc(F)c2)NC(C)=O)(c2cccc(C(C)(C)C)c2)CC1 (single isomer, unassigned) [196B-4 Diastereomer B, N-[3-[1-(3-tert-Butyl-phenyl)-4-methoxy-cyclohexylamino]-1-(3,5-difluoro-benzyl)-2-hydroxy-propyl]-acetamide]
- IC50 catE/IC50 BACE [1]: 1.5

Structure (SMILES): CONC1CCC(NCC(O)C(Cc2cc(F)cc(F)c2)NC(C)=O)(c2cccc(C(C)(C)C)c2)CC1 (single isomer, unassigned) [196B-11 Diastereomer A, N-(4-(1-(3-tert-butylphenyl)-4-(methoxyamino)cyclohexylamino)-1-(3,5-difluorophenyl)-3-hydroxybutan-2-yl)acetamide]
- IC50 catE/IC50 BACE [1]: 7.4

Structure (SMILES): CONC1CCC(NCC(O)C(Cc2cc(F)cc(F)c2)NC(C)=O)(c2cccc(C(C)(C)C)c2)CC1 (single isomer, unassigned) [196B-12 Diastereomer B, N-(4-(1-(3-tert-butylphenyl)-4-(methoxyamino)cyclohexylamino)-1-(3,5-difluorophenyl)-3-hydroxybutan-2-yl)acetamide]
- IC50 catE/IC50 BACE [1]: 12.5

Structure (SMILES): CSC1CCC(NCC(O)C(Cc2cc(F)cc(F)c2)NC(C)=O)(c2cccc(C(C)(C)C)c2)CC1 (single isomer, unassigned) [196B-14 Diastereomer A, N-[3-[1-(3-tert-Butyl-phenyl)-4-methylsulfanyl-cyclohexylamino]-1-(3,5-difluoro-benzyl)-2-hydroxy-propyl]-acetamide]
- IC50 catE/IC50 BACE [1]: 5.5 and 3.4 and 2.9

Structure (SMILES): CSC1CCC(NCC(O)C(Cc2cc(F)cc(F)c2)NC(C)=O)(c2cccc(C(C)(C)C)c2)CC1 (single isomer, unassigned) [196B-15 Diastereomer B, N-[3-[1-(3-tert-Butyl-phenyl)-4-methylsulfanyl-cyclohexylamino]-1-(3,5-difluoro-benzyl)-2-hydroxy-propyl]-acetamide]
- IC50 catE/IC50 BACE [1]: 2.4 and > 2.5 and 2.3

Structure (SMILES): CNC1CCC(NCC(O)C(Cc2cc(F)cc(F)c2)NC(C)=O)(c2cccc(C(C)(C)C)c2)CC1 (single isomer, unassigned) [196B-16 Diastereomer A, N-(4-(1-(3-tert-butylphenyl)-4-(methylamino)cyclohexylamino)-1-(3,5-difluorophenyl)-3-hydroxybutan-2-yl)acetamide]
- IC50 catE/IC50 BACE [1]: >4.7

Structure (SMILES): CNC1CCC(NCC(O)C(Cc2cc(F)cc(F)c2)NC(C)=O)(c2cccc(C(C)(C)C)c2)CC1 (single isomer, unassigned) [196B-17 Diastereomer B, N-(4-(1-(3-tert-butylphenyl)-4-(methylamino)cyclohexylamino)-1-(3,5-difluorophenyl)-3-hydroxybutan-2-yl)acetamide]
- IC50 catE/IC50 BACE [1]: 1.8

Structure (SMILES): CC(=O)NC(Cc1cc(F)cc(F)c1)C(O)CNC1(c2cccc(C(C)(C)C)c2)CCC(N)CC1 (single isomer, unassigned) [196B-18 Diastereomer A, N-(4-(1-(3-tert-butylphenyl)-4-aminocyclohexylamino)-1-(3,5-difluorophenyl)-3-hydroxybutan-2-yl)acetamide]
- IC50 catE/IC50 BACE [1]: >8.4

Structure (SMILES): CC(=O)NC(Cc1cc(F)cc(F)c1)C(O)CNC1(c2cccc(C(C)(C)C)c2)CCC(N)CC1 (single isomer, unassigned) [196B-19 Diastereomer B, N-(4-(1-(3-tert-butylphenyl)-4-aminocyclohexylamino)-1-(3,5-difluorophenyl)-3-hydroxybutan-2-yl)acetamide]
- IC50 catE/IC50 BACE [1]: >8.4

Structure (SMILES): CC(=O)NC(Cc1cc(F)cc(F)c1)C(O)CNC1(c2cccc(C(C)(C)C)c2)CCC(C(F)(F)F)CC1 (single isomer, unassigned) [196B-21 Diastereomer A, N-(4-(1-(3-tert-butylphenyl)-4-(trifluoromethyl)cyclohexylamino)-1-(3,5-difluorophenyl)-3-hydroxybutan-2-yl)acetamide]
- IC50 catE/IC50 BACE [1]: 6.4

Structure (SMILES): CC(=O)NC(Cc1cc(F)cc(F)c1)C(O)CNC1(c2cccc(C(C)(C)C)c2)CCC(C(F)(F)F)CC1 (single isomer, unassigned) [196B-22 Diastereomer B, N-(4-(1-(3-tert-butylphenyl)-4-(trifluoromethyl)cyclohexylamino)-1-(3,5-difluorophenyl)-3-hydroxybutan-2-yl)acetamide]
- IC50 catE/IC50 BACE [1]: 2.5

Structure (SMILES): CC(=O)NC1CCC(NCC(O)C(Cc2cc(F)cc(F)c2)NC(C)=O)(c2cccc(C(C)(C)C)c2)CC1 (single isomer, unassigned) [196B-23 Diastereomer A, N-[3-[4-Acetylamino-1-(3-tert-butyl-phenyl)-cyclohexylamino]-1-(3,5-difluoro-benzyl)-2-hydroxy-propyl]-acetamide]
- IC50 catE/IC50 BACE [1]: 29.5

Structure (SMILES): CC(=O)NC(Cc1cc(F)cc(F)c1)C(O)CNC1(c2cccc(C(C)(C)C)c2)CCC([S+](C)[O-])CC1 (single isomer, unassigned) [196B-24 Diastereomer B, N-(4-(1-(3-tert-butylphenyl)-4-(methylsulfinyl)cyclohexylamino)-1-(3,5-difluorophenyl)-3-hydroxybutan-2yl)acetamide]
- IC50 catE/IC50 BACE [1]: 3.0

Structure (SMILES): CC(=O)NC(Cc1cc(F)cc(F)c1)C(O)CNC1(c2cccc(C(C)(C)C)c2)CCC([S+](C)[O-])CC1 (single isomer, unassigned) [196B-25 Diastereomer A, N-(4-(1-(3-tert-butylphenyl)-4-(methylsulfinyl)cyclohexylamino)-1-(3,5-difluorophenyl)-3-hydroxybutan-2yl)acetamide]
- IC50 catE/IC50 BACE [1]: 1.1

Structure (SMILES): CC(=O)NC(Cc1cc(F)cc(F)c1)C(O)CNC1(c2cccc(C(C)(C)C)c2)CCC(O)(CO)CC1 (single isomer, unassigned) [196B-27 Diastereomer B, N-[3-[1-(3-tert-Butyl-phenyl)-4-hydroxy-4-hydroxymethyl-cyclohexylamino]-1-(3,5-difluoro-benzyl)-2-hydroxy-propyl]-acetamide]
- IC50 catE/IC50 BACE [1]: >5.3

Structure (SMILES): CC(=O)NC(Cc1cc(F)cc(F)c1)C(O)CNC1(c2cccc(C(C)(C)C)c2)CCC(O)(CO)CC1 (single isomer, unassigned) [196B-28 Diastereomer A, N-[3-[1-(3-tert-Butyl-phenyl)-4-hydroxy-4-hydroxymethyl-cyclohexylamino]-1-(3,5-difluoro-benzyl)-2-hydroxy-propyl]-acetamide]
- IC50 catE/IC50 BACE [1]: >7.4

Structure (SMILES): COC(=O)NC1CCC(NCC(O)C(Cc2cc(F)cc(F)c2)NC(C)=O)(c2cccc(C(C)(C)C)c2)CC1 (single isomer, unassigned) [196B-29 Diastereomer A, methyl 4-(3-acetamido-4-(3,5-difluorophenyl)-2-hydroxybutylamino)-4-(3-tert-butylphenyl)cyclohexylcarbamate]
- IC50 catE/IC50 BACE [1]: 13.1

Structure (SMILES): CC(=O)NC(Cc1cc(F)cc(F)c1)C(O)CNC1(c2cccc(C(C)(C)C)c2)CCC(N(O)C(C)=O)CC1 (single isomer, unassigned) [196B-31 Diastereomer A, N-(4-(3-acetamido-4-(3,5-difluorophenyl)-2-hydroxybutylamino)-4-(3-tert-butylphenyl)cyclohexyl)-N-hydroxyacetamide]
- IC50 catE/IC50 BACE [1]: 13.0

Structure (SMILES): CC(=O)NC(Cc1cc(F)cc(F)c1)C(O)CNC1(c2cccc(C(C)(C)C)c2)CCC(NS(C)(=O)=O)CC1 (single isomer, unassigned) [196B-35 Diastereomer B, N-(4-(1-(3-tert-butylphenyl)-4-(methylsulfonamido)cyclohexylamino)-1-(3,5-difluorophenyl)-3-hydroxybutan-2-yl)acetamide]
- IC50 catE/IC50 BACE [1]: >3.0

Structure (SMILES): CCS(=O)(=O)N1CCC(NCC(O)C(Cc2cc(F)cc(F)c2)NC(C)=O)(c2cccc(C(C)(C)C)c2)CC1 (centres unmarked) [Example 196A-15, N-[3-[4-(3-tert-Butyl-phenyl)-1-ethanesulfonyl-piperidin-4-ylamino]-1-(3,5-difluoro-benzyl)-2-hydroxy-propyl]-acetamide]
- IC50 catD/IC50 BACE [2]: 13.1

Structure (SMILES): CC(=O)NC(Cc1cc(F)cc(F)c1)C(O)CNC1(c2cccc(-c3ccsc3)c2)CCC(=O)CC1 (centres unmarked) [Example 196A-19, N-(1-(3,5-difluorophenyl)-3-hydroxy-4-(4-oxo-1-(3-(thiophen-3-yl)phenyl)cyclohexylamino)butan-2-yl)acetamide]
- IC50 catD/IC50 BACE [2]: 4.4

Structure (SMILES): CC(=O)NC(Cc1cc(F)cc(F)c1)C(O)CNC1(c2cccc(C(C)(C)C)c2)CCCN(C)C1 (centres unmarked) [Example 196A-40, N-(4-(3-(3-tert-butylphenyl)-1-methylpiperidin-3-ylamino)-1-(3,5-difluorophenyl)-3-hydroxybutan-2-yl)acetamide]
- IC50 catD/IC50 BACE [2]: >2,0

Structure (SMILES): CC(=O)NC(Cc1cc(F)cc(F)c1)C(O)CNC1(c2cccc(Br)c2)CCC2(CC1)OCCO2 (centres unmarked) [Example 196A-47, N-[3-[8-(3-Bromo-phenyl)-1,4-dioxa-spiro[4.5]dec-8-ylamino]-1-(3,5-difluoro-benzyl)-2-hydroxy-propyl]-acetamide]
- IC50 catD/IC50 BACE [2]: 1.7

Structure (SMILES): CC(=O)NC(Cc1cc(F)cc(F)c1)C(O)CNC1(c2cccc(C(C)(C)C)c2)CCC(C#N)CC1 (centres unmarked) [Example 196A-48, N-[3-[1-(3-tert-Butyl-phenyl)-4-cyano-cyclohexylamino]-1-(3,5-difluoro-benzyl)-2-hydroxy-propyl]-acetamide]
- IC50 catD/IC50 BACE [2]: 1.7

Structure (SMILES): CC(=O)NC(Cc1cc(F)cc(F)c1)C(O)CNC1(c2cccc(-c3ccsc3)c2)CCC(=O)CC1 (centres unmarked) [Example 196A-49, N-{1-(3,5-Difluoro-benzyl)-2-hydroxy-3-[4-oxo-1-(3-thiophen-3-yl-phenyl)-cyclohexylamino]-propyl}-acetamide]
- IC50 catD/IC50 BACE [2]: 4.4
